Values quoted from earlier work in patent US20060110454A1 (priority 2004, published 2006).
Where a name gives a salt, the structure may show the parent alone.

For `CCCN[C@H]1CCc2nc(N)sc2C1` [Pramipexole dihydrochloride, (S)-2-amino-4,5,6,7-tetrahydro-6-(propylamino)benzothiazole dihydrochloride monohydrate], the soluble in ethanol (ethanol) is given as “about 0.5%”, the soluble in methanol (methanol) is given as “about 8%” and the soluble in water (water) is given as “more than 20%”.
